Experimental data: patent publication US10857167B2, “Use of oligosaccharide compositions to enhance weight gain” (Children's Hospital Medical Center, priority 2015, dated 2020)
“Also recorded” adds a separate entry of the source.

What was measured:
[1] = system: TFF3, MUC2, DEFA5, ZO-1, HSPA1A, Reg3b, Reg3g; assay: Expression of genes relative to β-Actin in pre-operative and post-ICR mice; assay type: in vivo, mouse; settings: post-ICR with 2′ FL supplementation
[2] = system: small bowel luminal microbiome; assay: 16S sequencing of small bowel luminal contents after ICR; assay type: in vivo, mouse
From the text: Luminal small bowel contents were expressed into AllProtect Tissue Reagent (Qiagen Inc, CA). Bacterial DNA was extracted using the AllPrep DNA/RNA Mini Kit (Qiagen Inc, CA), according to kit instructions and prior to sequencing (described below). Small bowel tissue samples for RNA were placed into RNA Later (Life Technologies, NY). RNA extraction was accomplished following Qiagen RNeasy Plus Kit instruction (Qiagen Inc, CA). All nucleic acid samples were then stored at −80 Celsius until sequenced (described below).
Following bacterial community DNA extraction from harvested small bowel contents obtained from operated mice taken to 8 weeks, samples were quantified using the Qubit ssDNA kit (Life Technologies, NY). The V3 and V4 regions of the 16S gene were then amplified and tagged with region-specific primers (Illumina flowcell compatible sequences), permitting sequencing of up to 576 individual bacterial communities on the same flowcell. Fadrosh et al. (2014) Microbiome 2:6. Two positive and 2 negative controls were included in each run. FastStart Taq kit (Roche Applied Science, Indianapolis, Ind.) was used for thermocycling then equal volumes of each amplicon were pooled and cleaned using the QIAquick PCR cleanup column (Qiagen, MD). The size of library pools was then verified using the Fragment Analyzer CE (AATI, Ames Iowa) and quantified using the Qubit high sensitivity dsDNA kit. Dilution to 1 nM and addition of PhiX V3 library (Illumina, Calif.) was followed by denaturation and further dilution to 12 pM in Illumina's HT1 buffer. The pool was then loaded to the Illumina MiSeq V2 500 cycle kit cassette, a sample sheet prepared, and the MiSeq run was initiated for FASTQ generation.
The 16S rRNA amplicon sequences were assembled and processed using an integrated, high-throughput analysis pipeline established at Cincinnati Children's Hospital Medical Center. Paired-end reads were assembled and quality filtered using Pandaseq v2.8. Masella et al. (2012) BMC bioinformatics 13: 31. Reads with ambiguous base calls, minimum overlap of 10 nt, or <425 nt were culled. Demultiplexing and removal of barcodes and primers was performed using the FastX-toolkit. Pearson et al. (1997) Genomics 46: 24-36. De novo clustering at 97% sequence similarity and chimera filtering was performed using UPARSE v7. Edgar (2013) Nature methods 10: 996-998. UCLUST, as implemented in QIIME v1.8, was used for taxonomic classification to the Greengenes v13.8 database. Caporaso et al. (2010) Nature methods 7: 335-336; Edgar (2010) Bioinformatics 26: 2460-2461; and McDonald et al. (2012) The ISME journal 6: 610-618. PyNast and FastTree were used to align sequence reads and construct a phylogenetic tree. Caporaso et al. (2010) Bioinformatics 26: 266-267; and Price et al. (2010) PloS one 5: e9490; Price M N et al. (2009) Molecular biology and evolution 26: 1641-1650. Additional integrated analyses included QIIME scripts for the generation of alpha and beta diversity metrics, corresponding visualizations, and summaries and plots of taxonomic composition. Alpha and beta diversity metrics were computed after subsampling to the lowest observed read depth (n=7,793 reads).
In order to estimate the treatment effect on alpha diversity metrics adjusted for housing cohort, a generalized ANCOVA model was used. The Chaol, Shannon, Simpson and Faith's Phylogenetic Diversity indices were examined. Differences between groups in community composition post-treatment, as measured by the weighted and unweighted UniFrac metrics (Lozupone and Knight (2005) Applied and environmental microbiology 71: 8228-8235) were tested by permutational ANOVA as implemented by the ADONIS function in the R package vegan. Oksanen et al. (2015) Vegan: Community Ecology Package. 2015; and Team (2015) R: A language and environment for statistical computing R Foundation for Statistical Computing [http://www.R-project.org/. 2015]. […]

[3] = luminal contents, postop vs preop

Q: How did the “expression of genes TFF3, DEFA5, HSPA1A, Reg3b, and Reg3g relative to β-Actin” value [1] turn out when C[C@@H]1O[C@@H](O[C@H]2[C@H](O[C@H]3[C@H](O)[C@@H](O)C(O)O[C@@H]3CO)O[C@H](CO)[C@H](O)[C@@H]2O)[C@@H](O)[C@H](O)[C@@H]1O (some centres unmarked) [2′-FL, 2′-fucosyllactose] was run?
A: Its value is “increased expression”.

Q: What about the “relative abundance of Enterobacteriaceae after resection compared to control” value [2, 3] of the same compound?
A: Its value is “greater decline”.

Q: And the “relative abundance of Lachnospiraceae after resection compared to control” value [2, 3]?
A: The value was “relatively larger bloom”.

Q: And the “weighted or unweighted UniFrac metrics compared to control” value ([2]; post-treatment, 8 weeks after ICR)?
A: The value was “Nor were differences in the weighted or unweighted UniFrac metrics detected”.

Q: And the “other alpha-diversity metrics examined (Chao1, Simpson, Faith's Phylogenetic Diversity) compared to control” value ([2]; small bowel luminal contents 8 weeks after ICR)?
A: The value was “No differences were detected”.

Q: And the “microbial alpha diversity by Shannon diversity index compared to control” value ([2]; small bowel luminal contents 56 days after ICR)?
A: The value was “significant increase; also recorded: increased; also recorded: greater alpha diversity”.

Q: What about the “enrichment of sequence reads of genus Parabacteroides (OTU_146) compared to controls” value ([2]; small bowel luminal contents 56 days after ICR, adjusted for housing cohort) of the same compound?
A: The value was 4.1 log 2-fold.

Q: What about the “increase in microbes of the genus Parabacteroides compared to controls” value ([2]; supplemented, resected animals) of the same compound?
A: The value was > 4 fold.
